In experiment [1] the test system is Mus musculus. As to the kind of experiment: Antinociceptive activity in Swiss Webster mouse at 5.12 mg/kg, sc by tail-flick assay. The conditions noted are these: route subcutaneous. The class given is functional.
Experiment [2] has as its target T1, Opioid receptors; mu/kappa/delta (Homo sapiens, UniProt P41145+P41143+P35372). Kind of experiment: Displacement of [3H] naloxone from opioid receptor (unknown origin) in presence of 100 mM NaCl. Background: In a radioligand displacement assay an active substance lowers the binding of a labelled ligand.
Experiment [3] has as its target T1, Opioid receptors; mu/kappa/delta. Kind of experiment: Displacement of [3H] naloxone from opioid receptor (unknown origin).
For experiment [4], the system named is Mus musculus. As to the kind of experiment: Antinociceptive activity in Swiss Webster mouse at 1.6 mg/kg, sc by tail-flick assay. The arrangement: dose 1.6 mg/kg. The class given is functional, organism-based. On the technique in general: Thermal pain tests record how soon the animal reacts.
The subject of experiment [5] is Mus musculus. Kind of experiment: Antinociceptive activity in sc dosed Swiss Webster mouse by tail-flick assay. The class given is functional.

Calls of active or inactive are those of the source. The rule behind the calls is not given here.

For the compound `Cl.N[C@@H]1CC[C@@]2(O)[C@H]3Cc4ccc(O)c5c4[C@@]2(CCN3CC2CC2)[C@H]1O5`, the inhibition in vivo (in general, the relative decrease from the control value, in per cent) at 5.12 mg/kg with Mus musculus [1] turned out to be 27%. Moreover, the IC50 in experiment [2] stood at 7 ×10⁻¹⁰ M; in experiment [3], 9.1 ×10⁻¹⁰ M.
For the compound `C=CCN1CC[C@]23c4c5ccc(O)c4O[C@H]2[C@@H](N)CC[C@@]3(O)[C@H]1C5.Cl`, the inhibition result in the experiment on Mus musculus [4] is “inactive”. Besides, the IC50 in experiment [2] is 1.1 ×10⁻⁷ M; in experiment [3] it was 1.4 ×10⁻⁷ M.
For `C=CCN1CC[C@]23c4c5ccc(O)c4O[C@H]2[C@H](N)CC[C@@]3(O)[C@H]1C5.Cl`, the IC50 in experiment [2] was 5.3 ×10⁻⁸ M; in experiment [3] it was 8.6 ×10⁻⁸ M. Further, it took a dose of 4.9 mg/kg to reach the 50% effect level with Mus musculus [5] (ED50).
The compound `Cl.N[C@H]1CC[C@@]2(O)[C@H]3Cc4ccc(O)c5c4[C@@]2(CCN3CC2CC2)[C@H]1O5` displayed an inhibition in vivo at 5.12 mg/kg in the experiment with Mus musculus [1] of 18%. Moreover, the IC50 came out at 9 nM in experiment [2] and 2.9 nM in experiment [3].
Take `CN1CC[C@]23c4c5ccc(O)c4O[C@H]2[C@@H](O)C=C[C@H]3[C@H]1C5.Cl` [MORPHINE HYDROCHLORIDE]: in the experiment with Mus musculus [5], the ED50 – broadly, the dose at which the effect has come halfway, by size or by number of responders – worked out at 0.33 mg/kg.

The values above are taken from ChEMBL document CHEMBL3244379, “Stereochemical studies on medicinal agents. 23. Synthesis and biological evaluation of 6-amino derivatives of naloxone and naltrexone” (J Med Chem, 1977).
